Common to all, as to format: in vivo
For one experiment, the system named is skin and claws. Description: Case: Bullterrier with skin problems and splitting and breaking claws. Conditions: past treatment history of the same dog. From the text: A three year old, female Bullterrier Dog had suffered from various skin problems since it was a puppy. The skin problems were characterized by red spots in the stomach and hairless spots in the head and in the hind limbs. In addition to the skin problems the dog suffered from splitting and breaking claws. The claws kept constantly breaking and by the age of three the claws had never grown long enough to be clipped. […] The skin was cleared from the red spots and the hairless areas started to grow hair. The positive effects on the skin health remained over several months as the supplementation was continued. […] Three months after the supplementation with the oil blend had begun, the dog's claws needed to be clipped. This was the first time in this dog's life.

The next experiment concerns rhinarium. Description: Case: French Bulldog with dry, rough and chapped rhinarium. Conditions: past treatment history of the same dog. From the text: In this breed of dogs the rhinarium is typically black, but for this individual the black colour of the rhinarium had faded and was grey. […] Topical treatment with oil or ointments provided temporary smoothing effect and a change in colour. […] The rhinarium was no longer rough and chapped, but it was supple and had obtained a characteristic black colour. Subsequently the positive effect on the rhinarium condition was produced with the oil blend in dogs from different breeds.

Experiment [1] has as its system symmetrical lupoid onychodystrophy (SLO). In words: Case: schapendoes dog with symmetrical lupoid onychodystrophy (SLO). The settings on record: initial treatment before supplementation. The procedure:
A four year old, female schapendoes dog was diagnosed with symmetrical lupoid onychodystrophy (SLO). […] Supplementation with the nutritional oil blend as prepared in example 1 at 4 ml/10 kg body weight was started immediately after the secondary infections had cleared.

Another experiment deals with atopic and pruritic skin. In words: Case: Parson Russell terrier with atopic and pruritic skin. The settings on record: past treatment history of the same dog. From the text: An eight-year-old Parson Russell terrier had suffered for a long time from atopic and pruritic skin. The dog had been treated with cortisone and with a variety of different fatty acid supplements containing GLA and fish oil fatty acids (EPA and DHA). […] Constant itching tired the dog and it became phlegmatic. The dog was put on daily dosing of the nutritional oil blend as prepared in example 1 and a clear change in the dogs skin condition and behaviour occurred in a matter of weeks. The rashes and itching was reduced by 95%.

Turning to `O=C(O)CCCC[C@@H]1SC[C@@H]2NC(=O)N[C@@H]21` [biotin], the “claws with earlier treatment” value in the experiment with skin and claws was “without any appreciable improvement”. In addition, in the experiment on rhinarium, the “appearance of the rhinarium with earlier nutritional supplements” value is recorded as “without any appreciable effect”.
As for `CC1=C(C(=O)O)N2C(=O)[C@@H](NC(=O)[C@H](N)c3ccccc3)[C@H]2SC1` [cephalexin], the “secondary bacterial infections in affected claws” value in experiment [1] is listed as “total resolution of the bacterial infection”.
As to `C[C@]12CCC(=O)C=C1CC[C@@H]1[C@@H]2C(=O)C[C@@]2(C)[C@H]1CC[C@]2(O)C(=O)CO` [cortisone], the “effect of earlier treatments on atopic and pruritic skin” value in the experiment on atopic and pruritic skin is recorded as “provided help only for some weeks”.
On to vitamin A, for which, in the experiment on rhinarium, the “appearance of the rhinarium with earlier nutritional supplements” value was “without any appreciable effect”.

Values taken from patent US8470876B2, “Lipid composition for the treatment of skin problems in companion animals” (priority 2009, dated 2013).
